Test results reported in patent publication US8741897B2, “Glucocorticoid mimetics, methods of making them, pharmaceutical compositions and uses thereof” (Boehringer Ingelheim Pharmaceuticals Inc., priority 2003, dated 2014).

System: glucocorticoid receptor function
Assay: one or more of the above assays (GR binding and glucocorticoid receptor cell assays: aromatase, IL-6, TAT, MMTV-Luc, IL-8, ICAM-Luc)
Type: cell-based
Details: assay not specified per compound
Protocol: B. Glucocorticoid Receptor Cell Assays
1. Induction of Aromatase in Fibroblasts (Cell Assay for Transactivation)
Dexamethasone, a synthetic ligand to the glucocorticoid receptor (GR), induces expression of aromatase in human foreskin fibroblast cells. The activity of aromatase is measured by the conversion of testosterone to estradiol in culture media.
On the day of the experiment, the media in the wells is replaced with fresh media. Cells are treated with test compounds to final concentrations of 10^−5 M to 10^−8 M, and testosterone to a final concentration of 300 ng/mL. Each well has a total volume of 100 μL. Samples are made in duplicates. Control wells include: (a) wells that receive testosterone only, and (b) wells that receive testosterone plus 2 μM of dexamethasone to provide maximum induction of aromatase. Plates are incubated at 37° C. overnight (15 to 18 hours), and supernatants are harvested at the end of incubation. […] The amount of estradiol is inversely proportional to the ELISA signals in each well. The extent of aromatase induction by test compounds is expressed as a relative percentage to dexamethasone. EC50 values of test compounds are derived by non-linear curve fitting.
2. Inhibition of IL-6 Production in Fibroblasts (Cell Assay for Transrepression)
Human foreskin fibroblast cells produce IL-6 in response to stimulation by proinflammatory cytokine IL-1.
On the next day, media in the wells is replaced with fresh media. Cells are treated with IL-1 (rhIL-1α, R&D Systems Cat. No. 200-LA) to a final concentration of 1 ng/mL, and with test compounds to final concentrations of 10^−5 M to 10^−8 M, in a total volume of 200 μL per well. Samples are done in duplicates. […] Positive control wells receive IL-1 only and represent maximum (or 100%) amount of IL-6 production. Plates are incubated at 37° C. overnight (15 to 18 hours), and supernatants are harvested at the end of incubation. IL-6 levels in the supernatants are determined by the ELISA kits for IL-6 (MedSystems Diagnostics GmbH, Vienna, Austria, Cat. No. BMS213TEN) according to manufacture's instructions. The extent of inhibition of IL-6 by test compounds is expressed in percentage relative to positive controls. IC50 values of test compounds are derived by non-linear curve fitting.
Evaluation of agonist or antagonist activity of compounds binding to the glucocorticoid receptor may be determined by any of the assays.
3. Modulation of Tyrosine Aminotransferase (TAT) Induction in Rat Hepatoma Cells
Testing of compounds for agonist or antagonist activity in induction of tyrosine aminotransferase (TAT) in rat hepatoma cells.
H4-II-E-C3 cells were incubated overnight in 96 well plates (20,000 cells/100 μL/well) in MEM medium containing 10% heat inactivated FBS and 1% nonessential amino acids. On the next day, cells were stimulated with the indicated concentrations of dexamethasone or test compound (dissolved in DMSO, final DMSO concentration 0.2%) for 18 hours. Control cells were treated with 0.2% DMSO. After 18 hours, the cells were lysed in a buffer containing 0.1% Triton X-100 and the TAT activity was measured in a photometric assay using tyrosine and alpha-ketoglutarate as substrates.
For measuring antagonist activity, the hepatoma cells were pre-stimulated by addition of dexamethasone (concentration ranges from 3×10^−9 M to 3×10^−8 M) shortly before the test compound was applied to the cells.
4. Modulation of MMTV-Luc Induction in HeLa Cells
Testing of compounds for agonist or antagonist activity in stimulation of MMTV-(mouse mammary tumor virus) promoter in HeLa cells.
Cells were cultured overnight in DMEM medium without phenol red, supplemented with 3% CCS (charcoal treated calf serum) and then transferred to 96 well plates (15,000 cells/100 μL/well).

Structure (SMILES)	activity as agonists of the glucocorticoid receptor function in one or more of the above assays
COc1ccc(F)cc1C(C)(C)CC(O)(Cc1cc2cc(N(C)C)ncc2[nH]1)C(F)(F)F (centres unmarked) [2-(5-Dimethylamino-1H-pyrrolo[2,3-c]pyridin-2-ylmethyl)-1,1,1-trifluoro-4-(5-fluoro-2-methoxyphenyl)-4-methylpentan-2-ol]	potent agonists
COc1ccc(-c2cncnc2)cc1C(C)(C)CC(O)(Cc1cc2cc(N(C)C)ncc2[nH]1)C(F)(F)F (centres unmarked) [2-(5-Dimethylamino-1H-pyrrolo[2,3-c]pyridin-2-ylmethyl)-1,1,1-trifluoro-4-(2-methoxy-5-pyrimidin-5-ylphenyl)-4-methylpentan-2-ol]	potent agonists
COc1ccc(-c2ccccc2Cl)cc1C(C)(C)CC(O)(Cc1cc2cc(N3CCOCC3)ncc2[nH]1)C(F)(F)F (centres unmarked) [4-(2′-Chloro-4-methoxybiphenyl-3-yl)-1,1,1-trifluoro-4-methyl-2-(5-morpholin-4-yl-1H-pyrrolo[2,3-c]pyridin-2-ylmethyl)pentan-2-ol]	potent agonists
COc1ccc(-c2cncnc2)cc1C(C)(C)CC(O)(Cc1cc2cnccc2[nH]1)C(F)(F)F (centres unmarked) [1,1,1-Trifluoro-4-(2-methoxy-5-pyrimidin-5-ylphenyl)-4-methyl-2-(1H-pyrrolo[3,2-c]pyridin-2-ylmethyl)pentan-2-ol]	potent agonists
CCN(C)c1cc2cc(CC(O)(CC(C)(C)c3cc(F)ccc3OC)C(F)(F)F)[nH]c2cn1 (centres unmarked) [2-[5-(Ethylmethylamino)-1H-pyrrolo[2,3-c]pyridin-2-ylmethyl]-1,1,1-trifluoro-4-(5-fluoro-2-methoxyphenyl)-4-methylpentan-2-ol]	potent agonists
COc1ccc(-c2cccnc2)cc1C(C)(C)CC(O)(Cc1cc2cnccc2[nH]1)C(F)(F)F (centres unmarked) [1,1,1-Trifluoro-4-(2-methoxy-5-pyridin-3-ylphenyl)-4-methyl-2-(1H-pyrrolo[3,2-c]pyridin-2-ylmethyl)pentan-2-ol]	potent agonists
CCC(C)(C)C(O)(Cc1cc2ccncc2[nH]1)CC(C)(C)c1cc(F)ccc1OC (centres unmarked) [2-(5-Fluoro-2-methoxyphenyl)-2,5,5-trimethyl-4-(1H-pyrrolo[2,3-c]pyridin-2-ylmethyl)heptan-4-ol]	agonists
COc1ccc(Br)cc1C(C)(C)CC(O)(Cc1cc2cc(N(C)C)ncc2[nH]1)C(F)(F)F (centres unmarked) [4-(5-Bromo-2-methoxyphenyl)-2-(5-dimethylamino-1H-pyrrolo[2,3-c]pyridin-2-ylmethyl)-1,1,1-trifluoro-4-methylpentan-2-ol]	potent agonists
CC(C)(CC(O)(Cc1[nH]c2ccccc2c1Br)C(F)(F)F)c1cccc(F)c1 (centres unmarked) [2-(3-Bromo-1H-indol-2-ylmethyl)-1,1,1-trifluoro-4-(3-fluorophenyl)-4-methylpentan-2-ol]	potent agonists
COc1ccc(F)cc1C(C)(C)CC(O)(Cc1cc2nc(N3CCCC3)ncc2[nH]1)C(F)(F)F (centres unmarked) [1,1,1-Trifluoro-4-(5-fluoro-2-methoxyphenyl)-4-methyl-2-(2-pyrrolidin-1-yl-5H-pyrrolo[3,2-d]pyrimidin-6-ylmethyl)pentan-2-ol]	potent agonists
Cc1nccc2[nH]c(CC(O)(CC(C)(C)c3cc(-c4cccnc4)ccc3O)C(F)(F)F)cc12 (centres unmarked) [4-Pyridin-3-yl-2-[4,4,4-trifluoro-3-hydroxy-1,1-dimethyl-3-(4-methyl-1H-pyrrolo[3,2-c]pyridin-2-ylmethyl)butyl]phenol]	potent agonists
Cc1ccc(F)cc1C(C)(C)CC(O)(Cc1cc2ccncc2[nH]1)C1CC1 (centres unmarked) [2-Cyclopropyl-4-(5-fluoro-2-methylphenyl)-4-methyl-1-(1H-pyrrolo[2,3-c]pyridin-2-yl)pentan-2-ol]	agonists
COc1ccc(Br)cc1C(C)(C)CC(O)(Cc1cc2cc(OC(C)C)ncc2[nH]1)C(F)(F)F (centres unmarked) [4-(5-Bromo-2-methoxyphenyl)-1,1,1-trifluoro-2-(5-isopropoxy-1H-pyrrolo[2,3-c]pyridin-2-ylmethyl)-4-methylpentan-2-ol]	potent agonists
CC(C)(CC(O)(Cc1cc2ncncc2[nH]1)C(F)(F)F)c1cc(F)cc2c1OCC2 (centres unmarked) [1,1,1-Trifluoro-4-(5-fluoro-2,3-dihydrobenzofuran-7-yl)-4-methyl-2-(5H-pyrrolo[3,2-d]pyrimidin-6-ylmethyl)pentan-2-ol]	potent agonists
CC(=O)c1ccc2[nH]c(CC(O)(CC(C)(C)c3cc(Cl)cc4c3OCC4)C(F)(F)F)cc2n1 (centres unmarked) [1-{2-[4-(5-Chloro-2,3-dihydrobenzofuran-7-yl)-2-hydroxy-4-methyl-2-trifluoromethylpentyl]-1H-pyrrolo[3,2-b]pyridin-5-yl}ethanone]	potent agonists
CN(C)Cc1c(CC(O)(CC(C)(C)c2cc(F)ccc2O)C(F)(F)F)[nH]c2ccncc12 (centres unmarked)	potent agonists
Cc1ccc(F)c2[nH]c(CC(O)(CC(C)(C)c3cc(S(C)(=O)=O)cc4c3OCC4)C(F)(F)F)cc12 (centres unmarked) [1,1,1-Trifluoro-2-(7-fluoro-4-methyl-1H-indol-2-ylmethyl)-4-(5-methanesulfonyl-2,3-dihydrobenzofuran-7-yl)-4-methylpentan-2-ol]	potent agonists
CC(C)(CC(O)(Cc1cc2nc(-c3ccccc3)ncc2[nH]1)C(F)(F)F)c1cc(F)ccc1O (centres unmarked) [4-Fluoro-2-[4,4,4-trifluoro-3-hydroxy-1,1-dimethyl-3-(2-phenyl-5H-pyrrolo[3,2-d]pyrimidin-6-ylmethyl)butyl]phenol]	potent agonists
CC(C)C(=O)c1ccc2[nH]c(CC(O)(CC(C)(C)c3cc(Cl)cc4c3OCC4)C(F)(F)F)cc2n1 (centres unmarked) [1-{2-[4-(5-Chloro-2,3-dihydrobenzofuran-7-yl)-2-hydroxy-4-methyl-2-trifluoromethylpentyl]-1H-pyrrolo[3,2-b]pyridin-5-yl}-2-methylpropan-1-one]	potent agonists
CN(C)c1cc2cc(CC(O)(CC(C)(C)c3ccccc3)C(F)(F)F)[nH]c2cn1 (centres unmarked) [2-(5-Dimethylamino-1H-pyrrolo[2,3-c]pyridin-2-ylmethyl)-1,1,1-trifluoro-4-methyl-4-phenylpentan-2-ol]	potent agonists
Cc1ccc(F)cc1C(C)(C)CC(O)(Cc1cc2cc(OS(=O)(=O)C(F)(F)F)ncc2[nH]1)C(F)(F)F (centres unmarked) [Trifluoromethanesulfonic acid 2-[4-(5-fluoro-2-methylphenyl)-2-hydroxy-4-methyl-2-trifluoromethylpentyl]-1H-pyrrolo[2,3-c]pyridin-5-yl ester]	potent agonists
CC(C)(CC(O)(Cc1cc2ccncc2[nH]1)C(F)(F)F)c1cc(-c2ccccc2)ccc1O (centres unmarked) [3-[4,4,4-Trifluoro-3-hydroxy-1,1-dimethyl-3-(1H-pyrrolo[2,3-c]pyridin-2-ylmethyl)butyl]biphenyl-4-ol]	potent agonists
COc1nccc2[nH]c(CC(O)(CC(C)(C)c3cc(F)ccc3C)C(F)(F)F)cc12 (centres unmarked) [1,1,1-Trifluoro-4-(5-fluoro-2-methylphenyl)-2-(4-methoxy-1H-pyrrolo[3,2-c]pyridin-2-ylmethyl)-4-methylpentan-2-ol]	potent agonists
